Here are results for five compounds from article PMC5969224, “Lysine‐241 Has a Role in Coupling 2OG Turnover with Substrate Oxidation During KDM4‐Catalysed Histone Demethylation” (Chembiochem, 2018).

For assay [1], the target named is T1, WT KDM4A (Homo sapiens, UniProt O75164).
T1 sequence (O75164 1-359): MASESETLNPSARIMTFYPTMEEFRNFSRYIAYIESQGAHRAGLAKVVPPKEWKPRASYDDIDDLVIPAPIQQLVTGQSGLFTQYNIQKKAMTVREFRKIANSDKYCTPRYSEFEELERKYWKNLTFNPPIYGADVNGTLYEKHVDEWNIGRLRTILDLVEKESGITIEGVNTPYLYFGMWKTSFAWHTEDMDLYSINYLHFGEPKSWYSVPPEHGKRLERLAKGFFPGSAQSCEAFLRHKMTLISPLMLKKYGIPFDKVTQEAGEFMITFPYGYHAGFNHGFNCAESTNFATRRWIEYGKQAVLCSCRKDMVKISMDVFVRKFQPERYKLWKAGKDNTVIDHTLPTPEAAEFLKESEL
The following applies: ref 12b; cited from earlier work.
Procedure: Studies were then carried out to evaluate the ability of the two KDM4A proteins to catalyse the demethylation of a histone peptide substrate.

Assay [2] addresses T1, WT KDM4A. Briefly: 1H NMR substrate-uncoupled turnover of 2OG to succinate, WT KDM4A. It counts as biochemical. Details: two recombinant variants of KDM4A (residues 1–359) in Escherichia coli BL21(DE3) cells; His6 (N); made in house; host or cells: Escherichia coli BL21(DE3). The settings on record: WT 20.5 μM, 2OG 2 mM, ascorbate 1 mM, Fe(II) 100 μM, 50 mM ammonium formate pH 7.5, no peptide; 1H NMR 700 MHz, 1.5 min intervals over 30 min.
Procedure: Samples containing either WT or K241A (20.5 μM), an excess of 2OG (2 mM), ascorbate (1 mM), and ferrous iron (100 μM) in ammonium formate buffer (50 mM, pH 7.5) were subjected to ^1H NMR analysis at 1.5 min intervals over a 30‐min reaction.
(§1) 1H NMR activity and inhibition assays: 20.5 µM KDM4A WT or KDM4A K241A was
(§2) mixed with 2 mM 2OG, 1 mM sodium L-ascorbate, and 100 µM ferrous iron (source
(§3) (NH4)2FeSO4.6H2O), in 50 mM ammonium formate buffer pH 7.5 10 % v/v D2O in an Ep-
(§4) pendorf tube, before being immediately transferred to an NMR tube and subjected to 1H NMR
(§5) buffer was also present. NMR analyses were carried out on a Bruker AVIII 700 spectrometer
(§6) equipped with an inverse TCI 1H/13C/15N cryoprobe and running TOPSPIN 3.2 software. The
(§7) deuterium signal was used as an internal lock signal and 1H chemical shifts are reported in
ppm relative to the solvent HDO resonance (δH 4.7 ppm). The solvent signal was reduced by

Assay [3] addresses T2, K241A KDM4A (Homo sapiens, UniProt O75164, K241A).
T2 construct: two recombinant variants of KDM4A (residues 1–359) in Escherichia coli BL21(DE3) cells; His6 (N); made in house; host or cells: Escherichia coli BL21(DE3)
T2 sequence (O75164 1-359 K241A): T1 sequence (O75164 1-359) with K241A
Briefly: 1H NMR substrate-uncoupled turnover of 2OG to succinate, K241A KDM4A. It counts as biochemical.
Procedure: (§8) Samples containing either WT or K241A (20.5 μM), an excess of 2OG (2 mM), ascorbate (1 mM), and ferrous iron (100 μM) in ammonium formate buffer (50 mM, pH 7.5) were subjected to ^1H NMR analysis at 1.5 min intervals over a 30‐min reaction. […] Experiments were then conducted in the presence of a histone H3 eight‐residue fragment peptide containing N ^ϵ‐trimethyllysine at position 9 (H3K9me3, sequence: ARKme3STGGK).
as §1, §2, §3, §4
(§9) analysis (700 MHz). For samples containing peptide substrate (sequence: ARKme3STGGK),
(§10) the peptide concentration was 300 µM. For inhibition assays, samples contained 100 µM in-
(§11) hibitor (JIB-04 or NOG) and the spectra were acquired after 35 min. Note: residual protein
as §5, §6, §7
(§12) ppm relative to the solvent HDO resonance (δH 4.7 ppm).

The target of assay [4] is T1, WT KDM4A. In words: 1H CPMG NMR binding assay, WT KDM4A. The settings on record: protein titrated into 40 µM JIB-04, 100 µM Fe(II), 50 mM ammonium formate pH 7.5, 10 % D2O, 600 MHz CPMG, quadratic fit, read-out: K D (JIB-04), provisional. Set-up: two recombinant variants of KDM4A (residues 1–359) in Escherichia coli BL21(DE3) cells; His6 (N); made in house; host or cells: Escherichia coli BL21(DE3).
Procedure: as §8
(§13) NMR analyses were carried out on a Bruker AVIII 700 spectrometer
as §6, §7, §12
(§14) 1H CPMG NMR binding assays: Typical experimental parameters for Carr-Purcell-Mei-
(§15) boom-Gill (CPMG) NMR spectroscopy were as follows: total echo time, 40 ms; relaxation
(§16) delay, 2 s; and number of transients, 264. The PROJECT-CPMG sequence was applied
(§17) (90°x−[τ−180°y−τ−90°y−τ−180°y−τ]n−acq).[4] Water suppression was achieved by presatura-
(§18) tion. Protein (KDM4A WT or KDM4A K241A) was titrated into an assay mixture of 40 µM

Assay [5] has as its target T2, K241A KDM4A. The following applies: mixed-mode inhibition of K241A; cited from earlier work. From the text:
The overall MS, NMR spectroscopy and fluorescence polarisation studies imply that K241 has a role in KDM4A catalysis. […] Succinate formation by the K241A variant is stimulated by a histone fragment peptide, and a fluorescently labelled histone peptide bind ...

In assay [6] the target is T2, K241A KDM4A. Briefly: 1H CPMG NMR binding assay, K241A KDM4A. The settings on record: for binding to K241A versus WT KDM4A: CPMG NMR, K241A compared with WT.
Procedure: as §8, §13, §6, §7, §12, §14, §15, §16, §17, §18
Assay [7] deals with T2, K241A KDM4A. Briefly: 1H NMR inhibition assay of uncoupled 2OG turnover, K241A KDM4A. The following applies: K241A KDM4A 20.5 μM; inhibitor 100 μM; 2OG 2 mM; spectra after 35 min; pH 7.5. It counts as biochemical.
Procedure: as §8, §1, §2, §3, §4, §9, §10, §11, §5, §6, §7, §12
Assay [8] deals with T1, WT KDM4A. In words: 1H NMR inhibition assay of uncoupled 2OG turnover, WT KDM4A. The settings on record: WT KDM4A 20.5 μM; inhibitor 100 μM; 2OG 2 mM; spectra after 35 min; pH 7.5. Set-up: two recombinant variants of KDM4A (residues 1–359) in Escherichia coli BL21(DE3) cells; His6 (N); made in house; host or cells: Escherichia coli BL21(DE3). It counts as biochemical.
Procedure: as §8, §1, §2, §3, §4, §9, §10, §11, §5, §6, §7, §12
Assay [9] deals with T2, K241A KDM4A. Briefly: 1H NMR succinate formation in presence of H3 eight-residue peptide, K241A KDM4A. It counts as biochemical. The following applies: K241A KDM4A 20.5 μM; peptide 300 µM; 2OG 2 mM; pH 7.5.
Procedure: as §8, §1, §2, §3, §4, §9, §10, §11, §5, §6, §7, §12
Assay [10] has as its target T1, WT KDM4A. In words: 1H NMR succinate formation in presence of H3 eight-residue peptide, WT KDM4A. The settings on record: peptide 300 µM. Set-up: two recombinant variants of KDM4A (residues 1–359) in Escherichia coli BL21(DE3) cells; His6 (N); made in house; host or cells: Escherichia coli BL21(DE3). It counts as biochemical.
Procedure: as §8, §1, §2, §3, §4, §9, §10, §11, §5, §6, §7, §12
The target in assay [11] is T2, K241A KDM4A. In words: MALDI-TOF MS demethylation assay, K241A KDM4A. It counts as biochemical. The following applies: K241A KDM4A 1 μM, peptide 100 μM, 2OG 100 μM, ascorbate 100 μM, Fe(II) 10 μM, 50 mM HEPES pH 7.5, 40 min, 37 °C.
Procedure: Initially, we produced two recombinant variants of KDM4A (residues 1–359) in Escherichia coli BL21(DE3) cells; a truncated wild‐type sequence (KDM4A WT), or a variant with an alanine in place of Lys241 (K241A KDM4A). Studies were then carried out to evaluate the ability of the two KDM4A proteins to catalyse the demethylation of a histone peptide substrate.
MALDI-TOF MS activity assays: 1 µM WT KDM4A or KDM4A K241A was incubated
with 100 µM disodium 2-oxoglutarate (2OG), 100 µM sodium L-ascorbate, 10 µM ferrous iron
(source (NH4)2FeSO4.6H2O) and 100 µM of 15-residue H3 fragment peptide containing the
requisite trimethyllysine mark (Table S1) in 50 mM HEPES buffer pH 7.5 for 40 min at 37 °C.
Assays were quenched with an equal vol-
ume of methanol, and the extent of the reaction determined using MALDI-TOF mass spec-
trometry (MS). Data were analysed using MASSLYNX 4.0 (Waters).

Residue numbers refer to the chain shown, from its start. Entries after “also recorded” stand apart in the source; their conditions may differ. Square brackets hold non-standard residues; d marks the D form. Ends that are not written are not given here. Lys(Me3) = C[N+](C)(C)CCCC[C@H](N)C(=O)O

For `O=C(O)CCC(=O)C(=O)O` [2OG, 2‐oxoglutarate], in [1], the “K M (2OG)” value was 26 ± 7 µM. For the same compound, the “initial succinate formation rate” value in [2] is 1.35 µM/min; in [3] (K241A 20.5 μM, 2OG 2 mM, ascorbate 1 mM, Fe(II) 100 μM, 50 mM ammonium formate pH 7.5, no peptide, 1H NMR 700 MHz, 1.5 min intervals over 30 min), 1.55 µM/min. The “succinate formation rates, WT versus K241A” value in assay [3] (in the absence of peptide, WT and K241A KDM4A compared) is listed as “near identical”.
Take `Clc1ccc(N/N=C(\c2ccccc2)c2ccccn2)nc1` [JIB‐04]: the Kd was found to be 22 ± 5 µM in assay [4] and 7 ± 2 µM in [6] (K241A KDM4A, protein titrated into 40 µM JIB-04, 100 µM Fe(II), 50 mM ammonium formate pH 7.5, 10 % D2O, 600 MHz CPMG, quadratic fit, read-out: K D (JIB-04), provisional). Besides, in [5], the mode of inhibition result was “mixed‐mode inhibition”. In addition, the “binding to K241A versus WT KDM4A” value in assay [6] is “preferential binding of JIB‐04 to the K241A variant over the WT enzyme; also recorded: binding to K241A appears stronger”; in [6] (listed as JIB-04), “Binding appears stronger to the K241 variant than KDM4A WT”. Also, the “inhibition of uncoupled 2OG turnover” value in [7] and in [8] was “inhibition was more pronounced” in each case.
As for `O=C(O)CNC(=O)C(=O)O` [N‐oxalylglycine], the “inhibition of uncoupled 2OG turnover” value in assay [7] and in [8] was “inhibited” each time.
Consider “AR[Lys(Me3)]STGGK [histone H3 eight‐residue fragment peptide containing N ϵ‐trimethyllysine at position 9 (also called H3K9me3)]”, for which the “effect of peptide on succinate formation rate” value in assay [9] is listed as “markedly increased”; in [10] (WT KDM4A 20.5 μM, 2OG 2 mM, pH 7.5), “markedly increased”. Also, the “stimulation of succinate formation, WT versus K241A” value in assay [10] (WT compared with K241A) is “Stimulation of succinate formation was greater for WT than for K241A KDM4A; also recorded: Succinate formation is stimulated by H3K9me3 peptide, but more readily with WT KDM4A”.
Take “TPVKKKAR[Lys(Me3)]SAGAAK [H1.4K26 peptide]”: the “demethylation of histone peptide” value in assay [11] was “low‐level demethylation”.
